Measured values taken from article PMC9898036, “VIP152 is a selective CDK9 inhibitor with pre-clinical in vitro and in vivo efficacy in chronic lymphocytic leukemia” (Leukemia, 2022).

Experiments:
[1] = biological target: KIT(V559D) (Homo sapiens, UniProt P10721, V559D); assay: KINOMEscan: KIT(V559D); assay type: binding; conditions: 1000 nM, read-out: Percent Control
[2] = biological target: CDK4 (Homo sapiens, UniProt P11802); assay: KINOMEscan: CDK4; assay type: binding; conditions: 1000 nM, read-out: Percent Control
[3] = biological target: GSK3α (Homo sapiens, UniProt P49840); assay: NanoBRET target engagement assay (HEK293); assay type: cell-based
[4] = biological target: MAP3K15 (Homo sapiens, UniProt Q6ZN16); assay: KINOMEscan: MAP3K15; assay type: binding; conditions: 1000 nM, read-out: Percent Control
[5] = biological target: human kinome (Homo sapiens, UniProt Q9BWU1); assay: DiscoverX KINOMEscan kinase profiling (468 assays); assay type: binding; conditions: CDK11 (Entrez CDK19); 100 nM; read-out: Percent Control
Sequence of human kinome (Homo sapiens, UniProt Q9BWU1) (Q9BWU1 whole entry): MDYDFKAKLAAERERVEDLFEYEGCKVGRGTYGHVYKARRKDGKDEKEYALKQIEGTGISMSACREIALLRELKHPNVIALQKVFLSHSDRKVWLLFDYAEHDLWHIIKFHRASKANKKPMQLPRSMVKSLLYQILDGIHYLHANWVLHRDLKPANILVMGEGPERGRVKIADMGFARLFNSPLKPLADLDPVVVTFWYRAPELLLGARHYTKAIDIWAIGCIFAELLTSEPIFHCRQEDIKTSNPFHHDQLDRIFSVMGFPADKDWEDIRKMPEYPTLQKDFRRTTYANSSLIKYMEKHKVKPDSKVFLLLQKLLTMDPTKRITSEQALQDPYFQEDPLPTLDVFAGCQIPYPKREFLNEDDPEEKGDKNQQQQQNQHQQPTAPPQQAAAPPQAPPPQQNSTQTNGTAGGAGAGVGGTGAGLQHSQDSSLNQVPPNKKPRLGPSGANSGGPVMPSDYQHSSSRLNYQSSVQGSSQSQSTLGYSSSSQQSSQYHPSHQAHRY
Description: (§1) Kinomescan Kinase Profiling Assay
(§2) Kinomescan Assay was performed at DiscoverRX and described in Fabian, et al. 2005, Nat.
(§3) Biotechnol. In brief, kinases were produced and subsequently tagged with DNA for qPCR detection.
(§4) Streptavidin-coated magnetic beads were bound to biotinylated kinase ligands to serve as a solid support.
(§5) VIP152 was dissolved in DMSO and tested across a 10 serial threefold dilution set and compared to a test
(§6) compound and a DMSO control.
(§7) Kinome map was produced via TreeSpot
(§8) Analysis from DiscoverRX. […]

[6] = biological target: human kinome (Homo sapiens, UniProt P10721, D816V); assay: DiscoverX KINOMEscan kinase profiling (468 assays); assay type: binding; conditions: KIT(D816V); 100 nM; read-out: Percent Control
Description: as §1, §2, §3, §4, §5, §6, §7, §8

[7] = biological target: human kinome (Homo sapiens, UniProt P53671); assay: DiscoverX KINOMEscan kinase profiling (468 assays); assay type: binding; conditions: LIMK2; 100 nM; read-out: Percent Control
Description: as §1, §2, §3, §4, §5, §6, §7, §8

[8] = biological target: human kinome (Homo sapiens, UniProt O94768); assay: DiscoverX KINOMEscan kinase profiling (468 assays); assay type: binding; conditions: DRAK2 (Entrez STK17B); 100 nM; read-out: Percent Control
Sequence of human kinome (Homo sapiens, UniProt O94768) (O94768 whole entry): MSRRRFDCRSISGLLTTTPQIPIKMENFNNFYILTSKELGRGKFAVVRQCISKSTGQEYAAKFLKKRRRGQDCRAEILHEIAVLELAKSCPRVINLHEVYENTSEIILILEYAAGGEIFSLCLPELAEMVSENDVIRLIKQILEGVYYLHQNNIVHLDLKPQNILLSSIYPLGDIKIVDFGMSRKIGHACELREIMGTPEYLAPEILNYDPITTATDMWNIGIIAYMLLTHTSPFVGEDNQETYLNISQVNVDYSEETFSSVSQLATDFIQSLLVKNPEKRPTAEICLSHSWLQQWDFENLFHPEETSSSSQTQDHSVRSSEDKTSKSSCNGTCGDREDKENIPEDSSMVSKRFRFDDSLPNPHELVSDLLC
Description: as §1, §2, §3, §4, §5, §6, §7, §8

[9] = biological target: human kinome (Homo sapiens, UniProt Q9NY57); assay: DiscoverX KINOMEscan kinase profiling (468 assays); assay type: binding; conditions: kinase YANK2 (Entrez STK32B); compound concentration 1000 nM; read-out: Percent Control
Description: as §1, §2, §3, §4, §5, §6, §7, §8

[10] = biological target: human kinome (Homo sapiens, UniProt P31152); assay: DiscoverX KINOMEscan kinase profiling (468 assays); assay type: binding; conditions: ERK4 (Entrez MAPK4); 100 nM; read-out: Percent Control
Description: as §1, §2, §3, §4, §5, §6, §7, §8

[11] = biological target: human kinome (Homo sapiens, UniProt Q9Y2K2); assay: DiscoverX KINOMEscan kinase profiling (468 assays); assay type: binding; conditions: read-out: Percent Control
Sequence of human kinome (Homo sapiens, UniProt Q9Y2K2) (Q9Y2K2 whole entry): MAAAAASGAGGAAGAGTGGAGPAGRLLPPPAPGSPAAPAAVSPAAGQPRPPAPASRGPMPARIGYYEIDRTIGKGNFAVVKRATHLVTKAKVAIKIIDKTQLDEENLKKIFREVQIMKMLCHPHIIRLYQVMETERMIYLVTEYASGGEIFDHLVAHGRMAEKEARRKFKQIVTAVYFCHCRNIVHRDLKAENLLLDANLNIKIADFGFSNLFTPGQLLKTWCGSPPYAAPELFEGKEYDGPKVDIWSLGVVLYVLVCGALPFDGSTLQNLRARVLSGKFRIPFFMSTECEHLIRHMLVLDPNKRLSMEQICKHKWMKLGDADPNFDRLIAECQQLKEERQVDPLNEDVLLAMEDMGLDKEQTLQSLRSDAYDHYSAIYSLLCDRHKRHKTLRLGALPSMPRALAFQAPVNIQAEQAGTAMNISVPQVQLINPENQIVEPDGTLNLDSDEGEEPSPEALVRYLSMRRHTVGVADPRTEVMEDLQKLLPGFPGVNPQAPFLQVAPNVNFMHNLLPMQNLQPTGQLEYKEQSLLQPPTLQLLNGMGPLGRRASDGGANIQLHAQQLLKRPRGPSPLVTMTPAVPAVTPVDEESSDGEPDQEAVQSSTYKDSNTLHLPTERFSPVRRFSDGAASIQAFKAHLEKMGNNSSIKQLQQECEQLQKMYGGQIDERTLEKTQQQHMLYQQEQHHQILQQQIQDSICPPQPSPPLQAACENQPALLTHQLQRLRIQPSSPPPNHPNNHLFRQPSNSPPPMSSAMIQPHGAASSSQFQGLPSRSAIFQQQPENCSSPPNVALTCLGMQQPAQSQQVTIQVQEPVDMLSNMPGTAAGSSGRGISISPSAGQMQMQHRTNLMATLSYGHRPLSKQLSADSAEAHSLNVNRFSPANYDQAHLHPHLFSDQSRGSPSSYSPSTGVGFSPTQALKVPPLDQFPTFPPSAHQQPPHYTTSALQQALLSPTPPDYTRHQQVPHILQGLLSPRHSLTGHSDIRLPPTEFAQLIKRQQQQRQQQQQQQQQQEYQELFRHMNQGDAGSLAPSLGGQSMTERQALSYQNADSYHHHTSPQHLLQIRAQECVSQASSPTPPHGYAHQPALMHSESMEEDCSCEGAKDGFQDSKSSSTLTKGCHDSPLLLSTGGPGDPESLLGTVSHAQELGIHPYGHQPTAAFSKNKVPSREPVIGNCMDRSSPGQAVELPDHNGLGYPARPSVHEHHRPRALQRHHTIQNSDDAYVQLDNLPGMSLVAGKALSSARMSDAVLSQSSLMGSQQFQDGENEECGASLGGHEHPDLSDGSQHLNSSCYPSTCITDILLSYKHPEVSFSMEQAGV
Description: as §1, §2, §3, §4, §5, §6, §7, §8

[12] = biological target: human kinome (Homo sapiens, UniProt Q59H18); assay: DiscoverX KINOMEscan kinase profiling (468 assays); assay type: binding; conditions: kinase TNNI3K (Entrez TNNI3K); compound concentration 1000 nM; read-out: Percent Control
Description: as §1, §2, §3, §4, §5, §6, §7, §8

[13] = biological target: human kinome (Homo sapiens, UniProt O43293); assay: DiscoverX KINOMEscan kinase profiling (468 assays); assay type: binding; conditions: DAPK3; 100 nM; read-out: Percent Control
Description: as §1, §2, §3, §4, §5, §6, §7, §8

[14] = biological target: human kinome (Homo sapiens, UniProt O14936); assay: DiscoverX KINOMEscan kinase profiling (468 assays); assay type: binding; conditions: CASK; 100 nM; read-out: Percent Control
Description: as §1, §2, §3, §4, §5, §6, §7, §8

[15] = biological target: human kinome (Homo sapiens, UniProt Q08881); assay: DiscoverX KINOMEscan kinase profiling (468 assays); assay type: binding; conditions: ITK; 100 nM; read-out: Percent Control
Description: as §1, §2, §3, §4, §5, §6, §7, §8

[16] = biological target: human kinome (Homo sapiens, UniProt P00533, DEL746-750); assay: DiscoverX KINOMEscan kinase profiling (468 assays); assay type: binding; conditions: EGFR(E746-A750del); 100 nM; read-out: Percent Control
Description: as §1, §2, §3, §4, §5, §6, §7, §8

[17] = biological target: human kinome (Homo sapiens, UniProt O43318); assay: DiscoverX KINOMEscan kinase profiling (468 assays); assay type: binding; conditions: kinase TAK1 (Entrez MAP3K7); compound concentration 1000 nM; read-out: Percent Control
Description: as §1, §2, §3, §4, §5, §6, §7, §8

[18] = biological target: human kinome (Homo sapiens, UniProt P19525); assay: DiscoverX KINOMEscan kinase profiling (468 assays); assay type: binding; conditions: read-out: Percent Control
Sequence of human kinome (Homo sapiens, UniProt P19525) (P19525 whole entry): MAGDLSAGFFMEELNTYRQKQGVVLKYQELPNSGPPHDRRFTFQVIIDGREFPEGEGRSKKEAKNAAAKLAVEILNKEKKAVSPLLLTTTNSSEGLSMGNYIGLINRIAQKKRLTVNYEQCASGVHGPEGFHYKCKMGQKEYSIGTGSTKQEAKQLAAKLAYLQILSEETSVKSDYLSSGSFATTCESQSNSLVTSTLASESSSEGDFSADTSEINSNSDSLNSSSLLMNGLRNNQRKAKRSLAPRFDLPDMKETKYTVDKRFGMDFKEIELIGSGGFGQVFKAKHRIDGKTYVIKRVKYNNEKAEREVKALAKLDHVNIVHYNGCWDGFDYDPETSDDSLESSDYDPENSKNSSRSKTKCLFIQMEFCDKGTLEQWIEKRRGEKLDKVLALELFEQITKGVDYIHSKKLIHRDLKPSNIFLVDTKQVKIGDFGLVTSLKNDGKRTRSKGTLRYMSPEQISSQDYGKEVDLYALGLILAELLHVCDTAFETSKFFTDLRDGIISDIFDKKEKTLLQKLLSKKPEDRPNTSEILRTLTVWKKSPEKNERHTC
Description: as §1, §2, §3, §4, §5, §6, §7, §8

[19] = biological target: human kinome (Homo sapiens, UniProt P33981); assay: DiscoverX KINOMEscan kinase profiling (468 assays); assay type: binding; conditions: kinase TTK (Entrez TTK); compound concentration 1000 nM; read-out: Percent Control
Sequence of human kinome (Homo sapiens, UniProt P33981) (P33981 whole entry): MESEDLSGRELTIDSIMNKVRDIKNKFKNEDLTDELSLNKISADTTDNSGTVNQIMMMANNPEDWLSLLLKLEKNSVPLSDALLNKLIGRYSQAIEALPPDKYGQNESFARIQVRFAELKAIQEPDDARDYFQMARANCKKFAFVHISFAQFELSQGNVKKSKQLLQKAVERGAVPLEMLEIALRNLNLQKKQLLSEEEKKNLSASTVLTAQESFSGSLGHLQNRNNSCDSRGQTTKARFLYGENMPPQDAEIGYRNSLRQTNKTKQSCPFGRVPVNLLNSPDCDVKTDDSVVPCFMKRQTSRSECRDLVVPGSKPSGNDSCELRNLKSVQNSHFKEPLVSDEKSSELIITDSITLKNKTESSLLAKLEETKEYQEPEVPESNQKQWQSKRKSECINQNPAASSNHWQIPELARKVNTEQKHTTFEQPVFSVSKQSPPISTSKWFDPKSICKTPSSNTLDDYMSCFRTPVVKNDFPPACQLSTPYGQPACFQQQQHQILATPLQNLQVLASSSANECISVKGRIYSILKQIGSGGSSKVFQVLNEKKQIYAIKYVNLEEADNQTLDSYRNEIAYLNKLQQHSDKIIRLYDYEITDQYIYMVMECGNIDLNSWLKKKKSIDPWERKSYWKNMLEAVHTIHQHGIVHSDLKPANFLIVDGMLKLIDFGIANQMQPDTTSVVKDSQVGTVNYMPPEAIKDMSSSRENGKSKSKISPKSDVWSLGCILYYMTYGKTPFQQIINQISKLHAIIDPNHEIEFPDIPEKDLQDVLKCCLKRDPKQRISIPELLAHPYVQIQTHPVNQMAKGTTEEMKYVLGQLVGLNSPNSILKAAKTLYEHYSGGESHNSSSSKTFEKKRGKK
Description: as §1, §2, §3, §4, §5, §6, §7, §8

[20] = biological target: human kinome (Homo sapiens, UniProt Q14012); assay: DiscoverX KINOMEscan kinase profiling (468 assays); assay type: binding; conditions: CAMK1; 100 nM; read-out: Percent Control
Sequence of human kinome (Homo sapiens, UniProt Q14012) (Q14012 whole entry): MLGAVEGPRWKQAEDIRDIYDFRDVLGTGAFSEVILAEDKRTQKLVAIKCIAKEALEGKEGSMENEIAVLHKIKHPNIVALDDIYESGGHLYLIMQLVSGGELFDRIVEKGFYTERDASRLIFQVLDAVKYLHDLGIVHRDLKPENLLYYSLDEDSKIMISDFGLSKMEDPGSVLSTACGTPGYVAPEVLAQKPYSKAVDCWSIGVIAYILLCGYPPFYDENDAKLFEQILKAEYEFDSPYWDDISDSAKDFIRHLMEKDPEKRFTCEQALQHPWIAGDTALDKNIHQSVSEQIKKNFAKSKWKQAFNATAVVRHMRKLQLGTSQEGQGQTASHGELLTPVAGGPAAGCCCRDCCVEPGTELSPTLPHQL
Description: as §1, §2, §3, §4, §5, §6, §7, §8

[21] = biological target: human kinome (Homo sapiens, UniProt P68400); assay: DiscoverX KINOMEscan kinase profiling (468 assays); assay type: binding; conditions: CSNK2A1; 100 nM; read-out: Percent Control
Description: as §1, §2, §3, §4, §5, §6, §7, §8

[22] = biological target: CSF1R (Homo sapiens, UniProt P07333); assay: KINOMEscan: CSF1R; assay type: binding; conditions: 1000 nM, read-out: Percent Control
[23] = biological target: RIPK4 (Homo sapiens, UniProt P57078); assay: KINOMEscan: RIPK4; assay type: binding; conditions: 100 nM, read-out: Percent Control
[24] = system: TP53 R175H and R248Q mutated HG-3 cell lines; assay: Annexin V/propidium iodide flow cytometry; assay type: cell-based, human; conditions: 24, 48, and 72 h
[25] = biological target: RSK1(Kin.Dom.2-C-terminal) (Homo sapiens, UniProt Q15418); assay: KINOMEscan: RSK1(Kin.Dom.2-C-terminal); assay type: binding; conditions: 100 nM, read-out: Percent Control
[26] = biological target: CIT (Homo sapiens, UniProt O14578); assay: KINOMEscan: CIT; assay type: binding; conditions: 1000 nM, read-out: Percent Control
[27] = biological target: WNK2 (Homo sapiens, UniProt Q9Y3S1); assay: KINOMEscan: WNK2; assay type: binding; conditions: 100 nM, read-out: Percent Control
[28] = system: Purinergic P2Y; assay: Eurofins Diversity Panel; assay type: binding; conditions: rat, Conc. 10 μM
[29] = biological target: AAK1 (Homo sapiens, UniProt Q2M2I8); assay: KINOMEscan: AAK1; assay type: binding; conditions: 1000 nM, read-out: Percent Control
[30] = biological target: Neuropeptide Y Y1 (Homo sapiens, UniProt P25929); assay: Eurofins Diversity Panel; assay type: binding; conditions: hum, Conc. 10 μM
Sequence of Neuropeptide Y Y1 (P25929 whole entry): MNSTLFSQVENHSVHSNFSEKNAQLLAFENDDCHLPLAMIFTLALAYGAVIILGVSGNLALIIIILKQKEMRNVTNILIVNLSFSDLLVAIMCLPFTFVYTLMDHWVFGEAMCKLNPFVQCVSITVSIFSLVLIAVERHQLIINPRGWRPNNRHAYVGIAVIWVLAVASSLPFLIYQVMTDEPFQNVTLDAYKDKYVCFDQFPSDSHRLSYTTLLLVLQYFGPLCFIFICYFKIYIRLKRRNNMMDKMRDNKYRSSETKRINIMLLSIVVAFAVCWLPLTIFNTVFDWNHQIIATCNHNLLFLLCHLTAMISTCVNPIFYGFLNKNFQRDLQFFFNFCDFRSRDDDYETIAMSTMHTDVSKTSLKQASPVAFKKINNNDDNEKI

[31] = biological target: SRPK1 (Homo sapiens, UniProt Q96SB4); assay: KINOMEscan: SRPK1; assay type: binding; conditions: 100 nM, read-out: Percent Control
[32] = biological target: EGFR(L747-S752del, P753S) (Homo sapiens, UniProt P00533, DEL747-752/P753S); assay: KINOMEscan: EGFR(L747-S752del, P753S); assay type: binding; conditions: 1000 nM, read-out: Percent Control
[33] = biological target: MAP3K2 (Homo sapiens, UniProt Q9Y2U5); assay: KINOMEscan: MAP3K2; assay type: binding; conditions: 1000 nM, read-out: Percent Control
Sequence of MAP3K2 (Q9Y2U5 whole entry): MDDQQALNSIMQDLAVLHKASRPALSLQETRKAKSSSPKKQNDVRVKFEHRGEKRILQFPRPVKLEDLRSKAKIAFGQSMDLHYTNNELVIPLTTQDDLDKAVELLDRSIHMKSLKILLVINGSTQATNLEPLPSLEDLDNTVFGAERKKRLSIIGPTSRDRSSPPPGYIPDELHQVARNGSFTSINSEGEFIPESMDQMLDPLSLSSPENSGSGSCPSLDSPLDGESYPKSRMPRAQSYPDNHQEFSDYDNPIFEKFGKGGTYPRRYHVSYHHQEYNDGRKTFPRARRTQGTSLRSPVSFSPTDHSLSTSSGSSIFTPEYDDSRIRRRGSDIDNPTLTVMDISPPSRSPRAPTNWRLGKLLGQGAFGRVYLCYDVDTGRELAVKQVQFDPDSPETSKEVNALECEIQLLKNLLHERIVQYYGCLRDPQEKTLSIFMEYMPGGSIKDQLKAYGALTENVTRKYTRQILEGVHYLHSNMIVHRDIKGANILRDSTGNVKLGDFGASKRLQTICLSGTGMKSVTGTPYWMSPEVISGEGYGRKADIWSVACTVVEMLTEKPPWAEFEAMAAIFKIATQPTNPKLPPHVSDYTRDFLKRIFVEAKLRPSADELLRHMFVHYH

COc1cc(F)ccc1-c1cc(Nc2cc(CS(C)(=N)=O)ccn2)ncc1F (centres unmarked) [VIP152]
remaining binding at 1 µM [1]: 82%
remaining binding at 1 µM [2]: 71%
inhibitory capacity against GSK3α [3]: Inhibits
remaining binding at 1 µM [4]: 93%
remaining binding at 0.1 µM [5]: 100%
remaining binding at 0.1 µM [6]: 100%
remaining binding at 0.1 µM [7]: 100%
remaining binding at 0.1 µM [8]: 100%
remaining binding at 1 µM [9]: 98%
remaining binding at 0.1 µM [10]: 100%
remaining binding at 0.1 µM ([11]; QSK (Entrez KIAA0999), 100 nM): 100%
remaining binding at 1 µM ([11]; kinase QSK (Entrez KIAA0999), compound concentration 1000 nM): 98%
remaining binding at 1 µM [12]: 27%
remaining binding at 0.1 µM [13]: 100%
remaining binding at 0.1 µM [14]: 78%
remaining binding at 0.1 µM [15]: 100%
remaining binding at 0.1 µM [16]: 100%
remaining binding at 1 µM [17]: 65%
remaining binding at 0.1 µM ([18]; PRKR (Entrez EIF2AK2), 100 nM): 100%
remaining binding at 1 µM ([18]; kinase PRKR (Entrez EIF2AK2), compound concentration 1000 nM): 100%
remaining binding at 1 µM [19]: 68%
remaining binding at 0.1 µM [20]: 100%
remaining binding at 0.1 µM [21]: 100%
remaining binding at 1 µM [22]: 70%
remaining binding at 0.1 µM [23]: 100%
cytotoxicity [24]: significant levels of cytotoxicity
remaining binding at 0.1 µM [25]: 100%
remaining binding at 1 µM [26]: 43%
remaining binding at 0.1 µM [27]: 100%
% Inh. [28]: 8%
remaining binding at 1 µM [29]: 47%
inhibition at 10 µM [30]: -3%
remaining binding at 0.1 µM [31]: 100%
remaining binding at 1 µM [32]: 94%
remaining binding at 1 µM [33]: 57%
